Test results taken from patent US20110319640A1, “LARGE-SCALE PURIFICATION OF 2-PYRONE-4,6-DICARBOXYLIC ACID” (KABUSHIKI KAISHA TOYOTA JIDOSHOKKI, priority 2007, published 2011).

Experiment: water solubility of PDC and PDC complex salts (FIG. 2)
Type: physicochemical
Conditions: in water; free compound
Description: Hereinafter, a complex salt formed centering on the Carbonyl group of PDC may be referred to as “a PDC complex salt,” in order to distinguish from a complex salt described in the section of salts of cations. The structure of a […] complex salt is described in many references (for example, Acta. Cryst. (1992) C48, 460-465).

water solubility: 182 mM
SMILES: O=C(O)c1cc(C(=O)O)oc(=O)c1 [free PDC, 2-pyrone-4,6-dicarboxylic acid]
